The record followed here is patent publication US11098077B2, “Locked nucleic acid cyclic dinucleotide compounds and uses thereof” (CHINOOK THERAPEUTICS, INC., priority 2016, dated 2021).

For orientation: EC50 means the concentration giving half of the maximal effect. High values mean a need for much substance, low ones an effect from little substance.

For one assay, the target named is T1, hSTING WT (Homo sapiens, UniProt Q86WV6, H232R).
T1 construct: DNA encoding amino acids 140-379 (amino acid numbering corresponding to Swiss Prot Q86WV6); 6xHIS (N, cleaved yes); SUMO (N, cleaved yes); made in house; host or cells: Rosetta2 (DE3) E. coli
The assay can be described thus: Differential scanning fluorometry (DSF) binding to purified STING AA140-379, wild type. The settings on record: for hSTING Tm Shift WT: DSF, ligand 1 mM, 1 mg/ml STING AA140-379. As to the method:
(§1) Cells were grown in lysogeny broth at 37° C. until a […] absorbance of 0.6 was reached. […] Cell pellets were re-suspended on ice in a buffer containing 50 mM Tris hydrochloride (Tris-HCl) pH 7.5, 500 mM sodium chloride (NaCl), 20 mM imidazole, 10% glycerol, 1 mM tris(2-carboxyethyl)phosphine hydrochloride (TCEP) and protease inhibitor tablet (Pierce) (Buffer A). Cells were lysed using an S-450D sonifier (Emmerson industrial) on ice. […] Protein was aliquoted, flash frozen in liquid nitrogen and stored at −80° C. until use.
(§2) The protein is heated in the presence of a dye that binds to and fluoresces in hydrophobic environments. The protein is thermally denatured by heating resulting in increased dye binding to the unfolded protein and fluorescence. The temperature midpoint (Tm) of a proteins denaturation is established by calculating the half maximal value of the denaturation curve. The temperature midpoint of the protein in the presence of a ligand is directly related to the affinity of the ligand for the protein and therefore its ability to stabilize the protein at higher temperatures.
(§3) Each of wild type hSTING, HAQ allele hSTING and REF allele hSTING were used with each of the reference compounds and compounds of the invention as listed in Table 4. Samples were placed in hard shell PCR plate (Bio-Rad). The fluorescence as a function of temperature was recorded in a CFX 96 real time PCR machine (Bio-Rad) reading on the HEX channel, excitation 450-490, emission 560-580 nm. The temperature gradient was from 15-80° C. ramping 0.5° C. per 15 seconds and recording every 0.5° C. After subtraction of the background signal from a sample lacking protein and ligand. The midpoint temperature (Tm) was calculated by fitting the curves of the fluorescence as a function of temperature to a Boltzmann sigmoidal function (Graph Pad Prism).

A further assay addresses T2, hSTING REF allele (Homo sapiens, UniProt Q86WV6).
T2 construct: DNA encoding amino acids 140-379 (amino acid numbering corresponding to Swiss Prot Q86WV6); 6xHIS (N, cleaved yes); SUMO (N, cleaved yes); made in house; host or cells: Rosetta2 (DE3) E. coli
The assay can be described thus: Differential scanning fluorometry (DSF) binding to purified STING AA140-379, REF allele. As to conditions: for hSTING Tm Shift REF: DSF, ligand 1 mM, 1 mg/ml STING AA140-379; for Tm shift compared with 2′3′-RR-(A)(A) and 2′3′-(G)(A): for the REF allele. As for the experimental part: as §1, §2, §3
Background: DSF heats the sample and reads unfolding from a dye or from intrinsic fluorescence.

The next assay concerns the target T3, hSTING HAQ allele (Homo sapiens, UniProt Q86WV6, G230A/H232R/R293Q).
T3 construct: DNA encoding amino acids 140-379 (amino acid numbering corresponding to Swiss Prot Q86WV6); 6xHIS (N, cleaved yes); SUMO (N, cleaved yes); made in house; host or cells: Rosetta2 (DE3) E. coli
The assay can be described thus: Differential scanning fluorometry (DSF) binding to purified STING AA140-379, HAQ allele. As to conditions: ligand 1 mM, 1 mg/ml STING AA140-379. As for the experimental part:
as §1, §2, §3

Assay [1] has as its target T4, hSTING HAQ allele in THP1-Dual cells (Homo sapiens, UniProt Q86WV6, G230A/H232R/R293Q/R71H).
T4 construct: a human monocyte cell line containing the hSTING HAQ allele; host or cells: THP1-Dual cells
As to the kind of experiment: THP1-Dual IRF-3 inducible secreted luciferase reporter assay (type I interferon activation), without digitonin. It is filed as cell-based. As for the experimental part:
After 30 minutes, cells were washed and fresh RPMI media containing 10% FBS was added, and cells were incubated at 37° C. with 5% CO2 Cell culture supernatants from each sample were collected after overnight incubation, and 10 μL of the cell culture supernatants was added to 50 μL QUANTI-Luc reagent (Invivogen). Type I interferon activation was determined by measuring secreted luciferase levels on a SpectraMax M3 spectrophotometer (Molecular Devices).
In general terms: A reporter such as luciferase makes a cellular process visible.

The mark [2] stands for this setting: for all three alleles (WT, HAQ, REF).

Structures are written as SMILES.

T2 sequence (Q86WV6 140-379): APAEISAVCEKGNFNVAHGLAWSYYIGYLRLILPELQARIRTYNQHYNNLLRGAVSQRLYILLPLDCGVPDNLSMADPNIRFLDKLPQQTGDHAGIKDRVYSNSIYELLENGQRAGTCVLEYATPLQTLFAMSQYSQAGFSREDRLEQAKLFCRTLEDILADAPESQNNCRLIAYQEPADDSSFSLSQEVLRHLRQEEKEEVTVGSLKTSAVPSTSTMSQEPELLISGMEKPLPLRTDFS
T3 sequence (Q86WV6 140-379 G230A/H232R/R293Q limits assumed): as the sequence (Q86WV6 140-379) above, with G91A, H93R, R154Q counted along it
T1 sequence (Q86WV6 140-379 H232R limits assumed): as the sequence (Q86WV6 140-379) above, with H93R counted along it
T4 sequence (Q86WV6 whole entry R71H/G230A/H232R/R293Q): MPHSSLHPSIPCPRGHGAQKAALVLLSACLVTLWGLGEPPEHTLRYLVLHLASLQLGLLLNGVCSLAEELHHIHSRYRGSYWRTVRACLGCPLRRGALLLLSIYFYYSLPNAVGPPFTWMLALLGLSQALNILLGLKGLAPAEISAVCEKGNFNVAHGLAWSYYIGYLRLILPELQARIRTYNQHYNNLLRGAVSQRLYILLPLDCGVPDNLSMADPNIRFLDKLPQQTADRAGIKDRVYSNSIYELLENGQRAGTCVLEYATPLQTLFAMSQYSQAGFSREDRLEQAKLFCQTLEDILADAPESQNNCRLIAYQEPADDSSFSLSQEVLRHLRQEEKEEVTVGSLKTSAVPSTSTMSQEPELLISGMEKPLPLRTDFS

Regarding `Nc1nc2c(ncn2[C@@H]2O[C@@]34CO[C@@H]2[C@@H]3O[P@@](=O)(S)OC[C@H]2O[C@@H](n3cnc5c(N)ncnc53)[C@H](O)[C@@H]2O[P@](=O)(S)OC4)c(=O)[nH]1` [Compound 33b, 2-amino-9-((2R,3R,3 aS,5S,7aR,9R,10R,10aS,12R,14aR)-9-(6-amino-9H-purin-9-yl)-10-hydroxy-5,12-dimercapto-5,12-dioxidohexahydro-2H,7H,14H-3,14a-(epoxymethano)difuro[3,2-d:3′,2′-j][1,3,7,9]tetraoxa[2,8]diphosphacyclododecin-2-yl)-1,9-dihydro-6H-purin-6-one], the “hSTING Tm Shift WT” value on hSTING WT came out at 13.2 °C. The “Tm shift compared with reference compound 2′3′-RR-(A)(A)” value on hSTING WT (setting [2]) is on record as “comparable to or greater than that of the reference compound 2′3′-RR-(A)(A)”. Further, at hSTING REF allele, the “hSTING Tm Shift REF” value came to 9.3 °C; the “Tm shift compared with 2′3′-RR-(A)(A) and 2′3′-(G)(A)” value was “greater Tm shift than both 2′3′-RR-(A)(A) and 2′3′-(G)(A)”. The “hSTING Tm Shift HAQ” value on hSTING HAQ allele is 19.3 °C. In assay [1], this molecule returned an EC50 of 38 µM.

In the case of `Nc1ncnc2c1ncn2[C@@H]1O[C@@H]2CO[P@@](=O)(S)O[C@H]3[C@H]4OC[C@]3(CO[P@@](=O)(S)O[C@@H]1[C@H]2F)O[C@H]4n1cnc2c(N)ncnc21` [Compound 37a, dithio-(RP,RP)-cyclic-[3′βF-A(2′,5′)p-2′O,4′C-LNA-A(3′,5′)p]], the “hSTING Tm Shift WT” value on hSTING WT turned out to be 4.7 °C. Besides, the “hSTING Tm Shift REF” value on hSTING REF allele was 2.1 °C. Besides, at hSTING HAQ allele, the “hSTING Tm Shift HAQ” value is 11.2 °C. For the same molecule, it took 61.2 µM to reach a half-maximal effect in assay [1] (EC50).

As to `Nc1ncnc2c1ncn2[C@@H]1O[C@@H]2CO[P@](=O)(S)O[C@H]3[C@H]4OC[C@]3(CO[P@@](=O)(S)O[C@@H]1[C@H]2F)O[C@H]4n1cnc2c(N)ncnc21` [Compound 37b, dithio-(RP,SP)-cyclic-[3′βF-A(2′,5′)p-2′O,4′C-LNA-A(3′,5′)p]], the “hSTING Tm Shift WT” value at hSTING WT stood at 1.8 °C. Moreover, the “hSTING Tm Shift REF” value at hSTING REF allele amounted to 0.5 °C. Moreover, at hSTING HAQ allele, the “hSTING Tm Shift HAQ” value was determined as 6.8 °C. Further, the EC50 in assay [1] is greater than 150 µM.

Turning to `Nc1ncnc2c1ncn2[C@@H]1O[C@@H]2CO[P@](=O)(S)O[C@H]3[C@H]4OC[C@]3(CO[P@](=O)(S)O[C@@H]1[C@H]2F)O[C@H]4n1cnc2c(N)ncnc21` [Compound 37d, dithio-(SP,SP)-cyclic-[3′βF-A(2′,5′)p-2′O,4′C-LNA-A(3′,5′)p]], at hSTING WT, the “hSTING Tm Shift WT” value is −0.3 °C. On hSTING REF allele, the “hSTING Tm Shift REF” value is −0.3 °C. In addition, the “hSTING Tm Shift HAQ” value at hSTING HAQ allele was determined as 2.4 °C. In addition, the EC50 in assay [1] is greater than 150 µM.

Consider `Nc1ncnc2c1ncn2[C@@H]1O[C@@]23CO[C@@H]1[C@@H]2O[P@](=O)(S)OC[C@@H]1C[C@@H](O[P@](=O)(S)OC3)[C@H](n2cnc3c(N)ncnc32)O1` [Compound 21a, dithio-(Rp,Rp)-cyclic-[3′H-A(2′,5′)p-2′O,4′C-LNA-A(3′,5′)p]], for which the “hSTING Tm Shift WT” value at hSTING WT stood at 9.5 °C. Moreover, the “hSTING Tm Shift REF” value at hSTING REF allele was determined as 6.2 °C. The “hSTING Tm Shift HAQ” value on hSTING HAQ allele was 16.2 °C. Moreover, in assay [1], the midpoint of the response, the EC50, lay at 26.9 µM.

As for `Nc1nc2c(ncn2[C@@H]2O[C@@]34CO[C@@H]2[C@@H]3O[P@](=O)(S)OC[C@H]2O[C@@H](n3cnc5c(N)ncnc53)[C@H](O)[C@@H]2O[P@](=O)(S)OC4)c(=O)[nH]1` [Compound 33a, 3′3′-RR-(A)(2′O,4′C-LNA-G)], the “hSTING Tm Shift WT” value at hSTING WT was determined as 18.36 °C. In addition, at hSTING WT (setting [2]), the “Tm shift compared with natural ligand 2′3′-(G)(A)” value is “greater Tm shift than the natural ligand 2′3′-(G)(A)” and the “Tm shift compared with reference compound 2′3′-RR-(A)(A)” value is “comparable to or greater than that of the reference compound 2′3′-RR-(A)(A)”. In addition, on hSTING REF allele, the “hSTING Tm Shift REF” value turned out to be 11.9 °C; the “Tm shift compared with 2′3′-RR-(A)(A) and 2′3′-(G)(A)” value is “greater Tm shift than both 2′3′-RR-(A)(A) and 2′3′-(G)(A)”. Besides, the “hSTING Tm Shift HAQ” value on hSTING HAQ allele was found to be 29.6 °C. A half-maximal response in assay [1] (EC50) required 30.2 µM.

On to `Nc1ncnc2c1ncn2[C@@H]1O[C@@]23CO[C@@H]1[C@@H]2O[P@@](=O)(S)OC[C@@H]1C[C@@H](O[P@](=O)(S)OC3)[C@H](n2cnc3c(N)ncnc32)O1` [Compound 21b, dithio-(Rp,Sp)-cyclic-[3′H-A(2′,5′)p-2′O,4′C-LNA-A(3′,5′)p]], for which, at hSTING WT, the “hSTING Tm Shift WT” value stood at 5.0 °C. Moreover, the “hSTING Tm Shift REF” value on hSTING REF allele turned out to be 4.2 °C. Besides, the “hSTING Tm Shift HAQ” value on hSTING HAQ allele came to 10.0 °C. A half-maximal response in assay [1] (EC50) required 77.3 µM.

For the molecule `Nc1ncnc2c1ncn2[C@@H]1O[C@@H]2CO[P@@](=O)(S)O[C@H]3[C@H]4OC[C@]3(CO[P@](=O)(S)O[C@@H]1[C@H]2F)O[C@H]4n1cnc2c(N)ncnc21` [Compound 37c, dithio-(Sp,Rp)-cyclic-[3′βF-A(2′,5′)p-2′O,4′C-LNA-A(3′,5′)p]], the “hSTING Tm Shift WT” value at hSTING WT was determined as 1.2 °C. The “hSTING Tm Shift REF” value at hSTING REF allele turned out to be 0.8 °C. On hSTING HAQ allele, the “hSTING Tm Shift HAQ” value turned out to be 5.7 °C. Also, the EC50 in assay [1] was greater than 150 µM.

For the molecule `Nc1ncnc2c1ncn2[C@@H]1O[C@@H]2CO[P@](=O)(S)O[C@H]3[C@H]4OC[C@]3(CO[P@](=O)(S)O[C@@H]1[C@@H]2O)O[C@H]4n1cnc2c(N)ncnc21` [Compound 10d, dithio-(Sp,Sp)-cyclic-[A(2′,5′)p-2′O,4′-C-LNA-A(3′,5′)p]], the “hSTING Tm Shift WT” value at hSTING WT is 4.1 °C. The “hSTING Tm Shift REF” value at hSTING REF allele came to 3.2 °C. Further, the “hSTING Tm Shift HAQ” value at hSTING HAQ allele came out at 5.0 °C. Besides, the EC50 in assay [1] was greater than 150 µM.

On to `Nc1ncnc2c1ncn2[C@@H]1O[C@@]23CO[C@@H]1[C@@H]2O[P@@](=O)(S)OC[C@@]12CO[C@@H]([C@H](n4cnc5c(N)ncnc54)O1)[C@@H]2O[P@](=O)(S)OC3` [Compound 5b], for which, at hSTING WT, the “hSTING Tm Shift WT” value amounted to 11.3 °C. In addition, the “Tm shift compared with reference compound 2′3′-RR-(A)(A)” value on hSTING WT (setting [2]) is on record as “comparable to or greater than that of the reference compound 2′3′-RR-(A)(A)”. In addition, at hSTING REF allele, the “hSTING Tm Shift REF” value is 8.7 °C; the “Tm shift compared with 2′3′-RR-(A)(A) and 2′3′-(G)(A)” value is “greater Tm shift than both 2′3′-RR-(A)(A) and 2′3′-(G)(A)”. Besides, on hSTING HAQ allele, the “hSTING Tm Shift HAQ” value turned out to be 18.3 °C. Besides, in assay [1], the EC50 worked out at 19.3 µM.

As for `Nc1nc2c(ncn2[C@@H]2O[C@@H]3CO[P@](=O)(S)O[C@H]4[C@H]5OC[C@]4(CO[P@@](=O)(S)O[C@H]3[C@H]2O)O[C@H]5n2cnc3c(N)ncnc32)c(=O)[nH]1` [Compound 45b, 2-amino-9-((2R,3R,3aS,5S,7aR,9R,10R,10aS,12R,14aR)-2-(6-amino-9H-purin-9-yl)-10-hydroxy-5,12-dimercapto-5,12-dioxidohexahydro-2H,7H,14H-3,14a-(epoxymethano)difuro[3,2-d:3′,2′-j][1,3,7,9]tetraoxa[2,8]diphosphacyclododecin-9-yl)-1,9-dihydro-6H-purin-6-one], on hSTING WT, the “hSTING Tm Shift WT” value was 9.4 °C. Moreover, the “hSTING Tm Shift REF” value on hSTING REF allele came to 7.4 °C. Besides, at hSTING HAQ allele, the “hSTING Tm Shift HAQ” value was 14.7 °C. Also, in assay [1], a half-maximal effect (EC50) was put at 60 µM.
